{"source": "paper PMC9732455", "about": "“PCW-A1001, AI-assisted de novo design approach to design a selective inhibitor for FLT-3(D835Y) in acute myeloid leukemia” (Frontiers in Molecular Biosciences, 2022)", "key": {"FLT-3 (D835Y)": {"molecular_target": "T1, FLT-3 (D835Y) (Homo sapiens, UniProt P36888, D835Y)", "T1 construct": "gene FLT3", "T1 sequence (P36888 564-993 D835Y limits assumed)": "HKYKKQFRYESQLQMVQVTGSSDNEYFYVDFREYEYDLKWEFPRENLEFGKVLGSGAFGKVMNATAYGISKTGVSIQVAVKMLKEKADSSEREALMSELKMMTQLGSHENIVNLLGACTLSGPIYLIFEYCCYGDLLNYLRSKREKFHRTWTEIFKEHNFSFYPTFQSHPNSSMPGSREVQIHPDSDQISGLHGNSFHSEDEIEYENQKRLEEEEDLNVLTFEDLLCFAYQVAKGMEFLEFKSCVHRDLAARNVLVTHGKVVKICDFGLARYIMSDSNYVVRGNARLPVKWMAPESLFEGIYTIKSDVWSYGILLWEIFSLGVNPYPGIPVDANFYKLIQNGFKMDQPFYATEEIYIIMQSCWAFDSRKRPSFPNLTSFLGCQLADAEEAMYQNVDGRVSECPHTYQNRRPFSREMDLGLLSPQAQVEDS", "experiment": "in vitro kinase assay (ThermoFisher), dose-response", "type": "biochemical"}, "FLT-3 WT": {"molecular_target": "T2, FLT-3 WT (Homo sapiens, UniProt P36888)", "T2 construct": "gene FLT3", "T2 sequence (P36888 27-993)": "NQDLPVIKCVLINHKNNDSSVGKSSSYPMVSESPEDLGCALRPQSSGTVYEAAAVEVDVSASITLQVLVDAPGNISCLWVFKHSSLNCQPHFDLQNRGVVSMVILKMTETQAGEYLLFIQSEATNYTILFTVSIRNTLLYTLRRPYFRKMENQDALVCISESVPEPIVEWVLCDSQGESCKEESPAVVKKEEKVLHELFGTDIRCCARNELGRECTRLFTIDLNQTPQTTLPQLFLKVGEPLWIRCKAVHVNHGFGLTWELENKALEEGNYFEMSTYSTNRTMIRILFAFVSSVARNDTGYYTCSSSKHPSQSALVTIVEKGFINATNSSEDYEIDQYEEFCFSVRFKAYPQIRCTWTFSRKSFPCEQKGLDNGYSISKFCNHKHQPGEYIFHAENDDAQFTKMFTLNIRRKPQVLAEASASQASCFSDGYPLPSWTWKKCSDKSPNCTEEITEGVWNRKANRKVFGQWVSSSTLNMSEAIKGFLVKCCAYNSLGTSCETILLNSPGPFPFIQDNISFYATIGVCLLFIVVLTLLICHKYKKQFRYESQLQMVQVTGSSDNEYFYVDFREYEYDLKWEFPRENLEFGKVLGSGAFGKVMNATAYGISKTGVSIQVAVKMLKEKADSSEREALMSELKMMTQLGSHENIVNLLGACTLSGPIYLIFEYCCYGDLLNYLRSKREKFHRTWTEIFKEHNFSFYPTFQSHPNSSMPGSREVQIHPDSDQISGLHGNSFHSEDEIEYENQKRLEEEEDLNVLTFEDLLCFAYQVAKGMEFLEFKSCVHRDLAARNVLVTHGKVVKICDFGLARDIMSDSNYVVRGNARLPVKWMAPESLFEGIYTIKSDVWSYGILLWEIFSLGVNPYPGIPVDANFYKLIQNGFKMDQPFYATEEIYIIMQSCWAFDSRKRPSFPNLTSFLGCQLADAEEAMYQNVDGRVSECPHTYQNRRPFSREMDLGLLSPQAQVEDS", "experiment": "in vitro kinase assay (ThermoFisher), dose-response", "type": "biochemical"}}, "data": [{"smiles": "CC(C)(C)c1ccc(C(=O)Nc2ccc(C(N)=O)c(NC3CCCNC3)c2)cc1", "note": "(centres unmarked) [PCW-A1001]", "values": [{"measurement": "IC50", "setting": "FLT-3 (D835Y)", "result": 764, "unit": "nM"}, {"measurement": "IC50", "setting": "FLT-3 WT", "result": 2540, "unit": "nM"}]}]}
